“And” between values parts separate entries of the source, which are not always exact repeats. Identical values can stand only once.

The subject of one assay is IL-8. Kind of assay: IL1-α-induced IL-8 production in normal human dermal fibroblasts (ELISA). Type of assay: cell-based. As for the experimental part:
There is evidence that C. acnes is involved in invoking an inflammatory response. […] Therefore, the effect of the G2 dendrimer on inflammation in normal human dermis fibroblasts (NHDF) was assessed. NHDF were isolated from human dermis and maintained in DMEM containing 10% fetal calf serum, 1% antibiotics (penicillin/streptomycin) and 1% L-glutamine at 37° C. under 5% CO2 and 95% humidity.
IL-8 mediates inflammatory reactions in the skin through the recruitment of neutrophils and other immune cells to invade injured or inflamed tissue. IL-8 secretion is inducible in cultured human dermal fibroblasts following activation with the pro-inflammatory cytokine IL-la (Larsen, et al. (1989) Immunology 68(1):31-6). Accordingly, non-confluent NHDF cells were treated with IL1-α (0.1 ng/mL), as an inducer of IL-8 production, in the presence or absence of G2 dendrimer (10^−9M, 10^−8M, 10^−7M or 10^−6 M) or hydrocortisone (0.05 μg/mL) as the positive anti-inflammatory control. IL-8 release from fibroblasts was determined by enzyme-linked immunosorbent assay (ELISA).
In general terms: In an ELISA, binding on a coated surface is turned into a signal by an enzyme label.

A further assay has as its system TLR2. Kind of assay: TLR2 immunostaining in human skin explants challenged with C. acnes. The assay is classed as cell-based. As to conditions: topical application at 2 and 5 ppm. As for the experimental part:
(§1) Skin Treatment. Fifteen human skin specimens were obtained from patients undergoing plastic surgery (Caucasian women, 26 years old). Skin explants were maintained in culture for 8 days. A 1-hour treatment with G2 dendrimer (2 and 5 ppm) was concomitant with application of freeze-dried C. acnes (30 μL) at days 0, 1, 4 and 6 (FIG. 2). At day 8, explants were fixed and embedded in paraffin. Thick sections of 5 μm were stained with Masson's Trichrome stain or an anti-TLR2 antibody.
Immunostaining of TLR2 TLR2 is known to mediate the inflammatory response of skin to acne (Kim, et al. (2002) 1 Immunol. 169(3):1535-41; McInturff & Kim (2005) Semin. Cutan. Med. Surg. 24(2):73-8). Accordingly, TLR2 protein in frozen sections was assessed with an anti-TLR2 (clone TL2.1; Santa Cruz). Sections were incubated with a 1:25 dilution of the anti-TLR2 antibody overnight at 4° C. and antibody binding was subsequently detected with biotin/streptavidin-FITC conjugate. Nuclei were stained with propidium iodide.

In assay [1] the test system is adhesion of tritium-labeled C. acnes IP 53117T to keratinocytes (NCTC 2544). Kind of assay: C. acnes adhesion to keratinocytes, Method 1 (concomitant, 2 hours). The settings on record: after 2 hours, vs absence of G2 dendrimer. Type of assay: cell-based, Cutibacterium acnes. The protocol: (§2) Keratinocytes were isolated from the human epithelial cell line NCTC 2544 (Neufahrt, et al. (1978) Arch. Dermaol. Res. 256(3):255-60). Culture were maintained with Dulbecco's modified Eagle's medium (DMEM) containing 10% fetal calf serum, 1% antibiotics (penicillin/streptomycin), and 1% L-glutamine at 37° C. under 5% CO2 and 95% humidity.
To monitor bacterial adhesion, adenine of the IP 53117T bacterial strain (belonging to acneic phylotype IA1) was labeled with tritium and bacterial adhesion to the surface of keratinocytes was determined by counting the radioactivity. • Method 1. […] After incubation for 2 hours (37° C., 5% CO2), cells were washed with phosphate-buffered saline (PBS) to remove non-adherent bacteria. • Method 2. The keratinocytes were pretreated for 24 hours with the G2 dendrimer. Labeled bacteria (2×10^8 microorganisms/mL) was then added to the cell monolayer for 2 hours without prior removal of the G2 dendrimer.

In assay [2] the test system is C. acnes strain IP 53117T. Kind of assay: Inhibition of C. acnes growth in culture (MIC, 96-well plates). The settings on record: C. acnes strain IP 53117T (phylotype IA1); 24 to 48 hours at 37° C. Type of assay: cell-based, Cutibacterium acnes. The protocol: The effectiveness of G2 dendrimer for inhibiting the growth of C. acnes in culture was assessed. G2 dendrimer was used at a final concentration ranging between 10^−2 M and 10^−5M. Experiments were performed using C. acnes strain IP 53117T (see FR2844715 A1), a strain known to cause acne. This strain belongs to a ribotype 1 (RT1) from phylotype 1A1 and is thus an acneic strain.
Bacteria (10^8 CFU/ml) were inoculated in 96-well plates containing a range of G2 dendrimer concentrations.

The test system of the next assay is IL1-α. Kind of assay: IL1-α quantification in culture media of human skin explants (ELISA). Type of assay: cell-based. The protocol: as §1
Quantification of IL1-α Cytokine. The concentration of IL1-α in the culture media was determined using an ELISA assay kit (Cayman, Ann Arbor, MI). The absorbances were measured using a microplate reader Tecan Infinite M200 Pro, combined with Magellan's software.

In the next assay the test system is C. acnes. Kind of assay: Inhibition of C. acnes proliferation, comparison with linear polylysine. The assay is classed as cell-based, Cutibacterium acnes.
Assay [3] concerns C. acnes non-acneic strain RT6 (phylotype II). Kind of assay: Membrane fluidity of C. acnes strain RT6. Type of assay: cell-based, Cutibacterium acnes. The settings on record: 6·10^−6 M, 72 h of incubation. As for the experimental part:
The impact of G2 dendrimer on the membrane fluidity of three bacterial strains of Cutibacterium acnes was tested. Two of the tested strains of C. acnes are “acneic” strains belonging to phylotype IA1 (RT4 and RT5) while the last one is a non-acneic strain (RT6) belonging to phylotype II. Several colonies of RT4, RT5 and RT6 (C. acnes strains) were scrapped and put in reinforced clostridial medium (RMC medium). The tubes were vortexed few seconds and homogenized before to be completely filled out with RMC in order to create anaerobic state. The tubes were then incubated at 37° C. for at least 48 h.
Bacterial cultures were collected and the OD was taken at 580 nm. After inoculation, the bacteria were sending in microplate and treated or not with G2 dendrimer. After 2 hours in anaerobic chamber, the plate was transferred in microplate reader for 72 h (OD 580 nm with measurement every 30 min). Then, the generation time of the bacteria was analyzed for each C. acnes strains. The G2 Dendrimer was tested at the following concentrations: 6·10^−6M, and 6·10^−7M.

The subject of assay [4] is C. acnes acneic strain RT4 (phylotype IA1). Kind of assay: Membrane fluidity of C. acnes strain RT4. The assay is classed as cell-based, Cutibacterium acnes. As to conditions: 6·10^−6M, 72 h of incubation.
Assay [5] relates to Cutibacterium acnes acneic strain ribotype 5 (RT5) HL043PA2/HM-514. Kind of assay: Biofilm formation on glass slide, strain RT5. The assay is classed as cell-based. As to conditions: 72 h biofilm. As for the experimental part:
(§3) The Cutibacterium acnes acneic strain ribotype 5 (RT5) HL043PA2/HM-514 and the Cutibacterium acnes non-acneic strain ribotype 6 (RT6) HL110PA3/HM-554 were obtained from BEI Resources American Type Culture Collection (Virginia, United States). These two strains belong to the phylotypes IA1 and II, respectively (McDowell, 2017). Bacteria, stored at −80° C., were initially plated on brain-heart infusion (BHI, BD) agar plates for RT6 strain and on reinforced clostridial medium (RCM) agar plates for RT5 strain, and were incubated under anoxic conditions at 37° C. using a BD GasPack™ System. Colonies were transferred into sterile conical 15-mL tubes (Falcon) containing 12 ml of RCM and after vortexing for homogenization, the falcon tube is completely filled with RCM medium and incubated for 72 h at 37° C. […]
(§4) After 72 h (biofilm formation), the RCM medium was carefully removed in each well in order to remove planktonic cells. […] Syto 9 was excited at 488 nm and fluorescence emission was detected from 500 to 550 nm. […] Quantitative analyses of images stacks were performed using the COMSTAT software (see Worldwide Website: imageanalysis.dk/) (Heydorn et al., 2000). Maximal and average biofilm thickness (μm) and their biomass volume (μm^3/μm^2) were determined. […]

Assay [6] concerns C. acnes acneic strain RT5 (phylotype IA1). Kind of assay: Membrane fluidity of C. acnes strain RT5. The assay is classed as cell-based, Cutibacterium acnes. The settings on record: 6·10^−6M, 72 h of incubation.
Assay [7] deals with Cutibacterium acnes non-acneic strain ribotype 6 (RT6) HL110PA3/HM-554. Kind of assay: Biofilm formation on glass slide, strain RT6. The assay is classed as cell-based. As to conditions: 72 h biofilm. As for the experimental part:
as §3, §4

The test system of assay [8] is stratum corneum of human skin explants. Kind of assay: Keratolytic effect in human skin explants exposed to C. acnes. The assay is classed as cell-based. The settings on record: explants at day 8. The protocol:
as §1
Evaluation of Keratolytic Effect. The general morphology and in particular stratum corneum of the explants were analyzed. Images were taken with a Leica Orthoplan microscope equipped with a digital camera (tri-CCD) driven by the acquisition and archiving software Leica IM1000.

Assay [9] in a line: Anti-inflammatory effect, comparison with linear polylysine.
Assay [10] concerns adhesion of tritium-labeled C. acnes IP 53117T to keratinocytes (NCTC 2544). Kind of assay: C. acnes adhesion to keratinocytes, Method 2 (24-hour pretreatment). The assay is classed as cell-based, Cutibacterium acnes. As for the experimental part: as §2
To monitor bacterial adhesion, adenine of the IP 53117T bacterial strain (belonging to acneic phylotype IA1) was labeled with tritium and bacterial adhesion to the surface of keratinocytes was determined by counting the radioactivity. • Method 1. Labeled bacteria (2×10^8 microorganisms/mL) were combined with varying amounts of G2 dendrimer (final concentration between 10^−5M and 6.25×10^−6 M) and deposited on the surface of a monolayer of keratinocytes. After incubation for 2 hours (37° C., 5% CO2), cells were washed with phosphate-buffered saline (PBS) to remove non-adherent bacteria. • Method 2. The keratinocytes were pretreated for 24 hours with the G2 dendrimer. Labeled bacteria (2×10^8 microorganisms/mL) was then added to the cell monolayer for 2 hours without prior removal of the G2 dendrimer.

For the compound `C[C@]12CCC(=O)C=C1CC[C@@H]1[C@@H]2[C@@H](O)C[C@@]2(C)[C@H]1CC[C@]2(O)C(=O)CO` [hydrocortisone, reference compound], the “decrease of IL-8 production” value with IL-8 (NHDF, IL1-α 0.1 ng/mL, hydrocortisone 0.05 μg/mL) is recorded as 83%.

poly(L-lysine) G2 [G2 dendrimer]: the “TLR2 overexpression induced by C. acnes” value in the assay on TLR2 is “complete inhibition”. Moreover, the “inhibition of adhesion of C. acnes on keratinocyte surfaces” value in assay [1] (2.5×10^−7 M) was 29%; in [1] (5×10^−6 M), 40%; in assay [1] (10^−5 M) it was 50%; in [10] (2.5×10^−6 M) it was 35%; in assay [10] (5×10^−6 M), 51%; in assay [10] (10^−5M), 50%. Further, the “MIC (minimum inhibitory concentration)” value in assay [2] was 10-20 ppm and 20 ppm. In addition, the “management of IL-8 production following IL1-α stimulation, acetate vs chloride or carbonate counter-anions” value in the assay on IL-8 (dermal fibroblasts in vitro) is on record as “more effective”. In addition, the “decrease in IL1-α production compared to treatment with C. acnes” value is reported as 49% with IL1-α (2 ppm, day 1); 28% with IL1-α (2 ppm, day 4); 42% in the assay with IL1-α (5 ppm, day 1); 27% in the assay on IL1-α (5 ppm, day 4). For the same compound, in the assay on C. acnes, the “inhibition of C. acnes proliferation compared with linear polylysine” value is listed as “more effective than linear polylysine”. The “membrane rigidity (membrane fluidity) vs control” value in assay [3] is “does not exhibit any significant effect”; in assay [4] it was “significantly decreased”; in assay [6], “significantly decreased”. Further, the “change in biomass density in the biofilm” value in assay [5] is recorded as −50%. Further, the “change in thickness of the biofilm” value in [5] is −48%; in assay [7] it was −32%. Also, the “biomass density in the biofilm” value in assay [7] was “no effect”. The “keratolytic effect (morphology of stratum corneum)” value in [8] (2 ppm topical) was “moderate separation of the upper layers of the stratum corneum”; in assay [8] (5 ppm topical), “lower detachment”. Moreover, the “anti-inflammatory effect compared with linear polylysine” value in [9] is “more effective than linear polylysine”.

The values above are taken from patent US12083157B2, “Use of polylysine dendrimers in the prevention and management of acne-prone skin and acneic skin” (Lucas Meyer Cosmetics, priority 2019, dated 2024).
